According to US6852526B2, “Transdermal assay with magnetic clamp” (Transform Pharmaceuticals, Inc., priority 2000, dated 2005):
Several values for one entry are separate records, joined by “and”; a condition that tells them apart may be missing. Identical values can stand only once. Counter-ions that a name gives are not always drawn. Like-named read-outs stand apart in the source and are kept apart here.

Key:
[1] = cited from earlier work
[2] = passive experiments; cited from earlier work
[3] = Protocol: Human cadaver skin epidermis was prepared by first separating skin from the underlying fat and then separating the epidermis by heat treatment at 60° C. for 90 seconds using standard techniques.
An apparatus as described in FIG. 6 was assembled, wherein each plate in the apparatus was a rectangular shape having dimensions of 5.030″ (127.76 mm) by 3.365″ (85.48 mm). The apparatus was assembled by first placing a ⅛″ (3.175 mm) thick clear polycarbonate spacer plate 620 on top of an aluminum base plate 610 and aligning screw holes 622 in the spacer plate with screw holes 612 in the base plate. Thereafter, a 4×4 sample array was created on spacer plate 620, as described in Table 2 below:
Punched samples were placed on spacer plate 620 in the 4×4 array of Table 2 one at a time, and the location of each array sample was selected using guide marks 614 on base plate 610 to ensure that each array sample was placed such that it aligned with a donor reservoir 654 in reservoir plate 650. There were 96, 0.020″ (0.508 mm) deep, guide marks 614 on base plate 610, arranged in a 12×8 array which was located 11.24 mm in from the edges of the long sides of base plate 610, and 14.38 mm in from the edges of its short sides. At the time of placement, the release liner on each sample was removed to expose the drug reservoir/adhesive of the sample.
Array locations B3, C1, and D3 were controls without any samples in order to determine the potential impact of lateral diffusion on transdermal transport measurements with this apparatus.
Once all the samples were placed in the array, the piece of heat-stripped human cadaver skin, the size of which was larger than the array of samples, was gently and slowly placed over the samples so as to avoid any air pockets between the skin and the samples. The skin was oriented with the stratum corneum next to the samples. Then, a ¼″ (6.35 mm) thick clear polycarbonate reservoir plate 650 having an 4×4 array of ¼″ (6.35 mm) diameter donor reservoirs 654 was placed over the skin such that all of screw holes 652 on reservoir plate 650 were aligned with the corresponding screw holes 622 of spacer plate 620.
The resulting assembled apparatus 600 was clamped together by sliding a shoulder screw 660 with threads 622 through aligned screw holes 652 at each of the four corners of the assembled apparatus, and tightening each shoulder screw 660 so as to form a seal between reservoir plate 650 and the skin.
[…] of Dulbecco's Phosphate Buffered Saline (PBS) was added to each donor reservoir in the array as the reservoir medium.
After 2 hours, a […] test aliquot of reservoir medium was removed from each donor reservoir 654, and at that time, an additional […] of PBS was added into each donor reservoir 654. Each of the 2-hour test aliquots was placed in an HPLC vial and diluted to […] by addition of […] of 50:50 (v/v) 50 mM potassium phosphate (adjusted to pH 3.0 with phosphoric acid) and acetonitrile.
The foregoing process was repeated at 3 hours, 4 hours, and 5 hours.
The components of the HPLC system used to analyze the test aliquots were a Waters 2790 Separations Module, a Waters Photodiode Array Detector Model 996, and Waters Millennium 32 v3.2 Chromatography Software (Waters Corp., Milford Mass.).
The HPLC analysis was performed using a Platinum EPS C18 column (Alltech Associates, Muskegan, Mich.) with dimensions of 250 mm×4.6 mm and a […] particle size. The mobile phase was 50:50 (v/v) 50 mM potassium phosphate (adjusted to pH 3.0 with phosphoric acid): acetonitrile, with a flow rate of 1.0 ml/minute. Detection was performed by measuring UV absorbance at a wavelength of 260 nm. The run time was 4 minutes. Injection volume was […]. Column temperature was ambient.

[4] = empty control location (B3, C1, D3), no sample: lateral diffusion, 2 hour
[5] = empty control location (B3, C1, D3), no sample: lateral diffusion, 3 hour
[6] = empty control location (B3, C1, D3), no sample: lateral diffusion, 4 hour
[7] = sample* (A4, D1): drug reservoir came off the backing with the release liner, 2 hour
[8] = sample* (A4, D1): drug reservoir came off the backing with the release liner, 3 hour
[9] = sample* (A4, D1): drug reservoir came off the backing with the release liner, 4 hour
[10] = sample* (A4, D1): drug reservoir came off the backing with the release liner, 5 hour

## CC(C)(C)NC(=O)[C@@H]1C[C@@H]2CCCC[C@@H]2CN1C[C@@H](O)[C@H](Cc1ccccc1)NC(=O)[C@H](CC(N)=O)NC(=O)c1ccc2ccccc2n1 [saquinavir]
[1]
  Properties: absorption / water solubility: Poor absorption due to its low water

## CCCc1nn(C)c2c(=O)[nH]c(-c3cc(S(=O)(=O)N4CCN(C)CC4)ccc3OCC)nc12 [sildenafil citrate]
[1]
  Properties: absorption / water solubility: Poor absorption due to its low water

## CCCCCCCCCCCCCC(=O)OC(C)C [isopropyl myristate]
[2]
  corticosterone flux enhancement relative to the passive flux from PBS alone: 5

## polyethylene glycol 200 dilaurate
[2]
  corticosterone flux enhancement relative to the passive flux from PBS alone: 2

## CCCCCCCC/C=C\CCCCCCCC(=O)OCC(COC(=O)CCCCCCC/C=C\CCCCCCCC)OC(=O)CCCCCCC/C=C\CCCCCCCC [glycerol trioleate]
[2]
  corticosterone flux enhancement relative to the passive flux from PBS alone: 0.8

## COC1=CC(=O)C[C@@H](C)[C@]12Oc1c(Cl)c(OC)cc(OC)c1C2=O [griseofulvin]
[1]
  Properties: absorption / water solubility: Poor absorption due to its low water

## CC(C)c1nc(CN(C)C(=O)N[C@H](C(=O)N[C@@H](Cc2ccccc2)C[C@H](O)[C@H](Cc2ccccc2)NC(=O)OCc2cncs2)C(C)C)cs1 [ritonavir]
[1]; shipping and storage
  Properties: polymorphic stability: Can undergo a polymorphic shift during

## CN1CCCC1c1cccnc1 (centres unmarked) [Nicotine, nicotine]
[3]; detected in donor reservoirs over NICODERM CQ samples
  transdermal movement of the active component: crossed the skin barrier
[3]; donor reservoirs not located over samples
  lateral diffusion to adjacent wells: sufficiently slower than direct transdermal movement
[3]; [4]
  Nicotine Concentration Of Diluted Test Aliquots: 2.2 mg/mL and 1.5 mg/mL and 2.6 mg/mL
  Nicotine Concentration Of Original Test Aliquots: 22.0 mg/mL and 15.0 mg/mL and 26.0 mg/mL
[3]; empty control location (B3, C1, D3), no sample: lateral diffusion, 2 hr
  Nicotine Accumulation in donor reservoir: 1.650 mg and 1.125 mg and 1.950 mg
[3]; [5]
  Nicotine Concentration Of Diluted Test Aliquots: 2.5 mg/mL and 3.2 mg/mL and 4.0 mg/mL
  Nicotine Concentration Of Original Test Aliquots: 25.0 mg/mL and 32.0 mg/mL and 40.0 mg/mL
[3]; empty control location (B3, C1, D3), no sample: lateral diffusion, 3 hr
  Nicotine Accumulation in donor reservoir: 4.663 mg and 3.150 mg and 4.300 mg
[3]; [6]
  Nicotine Concentration Of Diluted Test Aliquots: 4.8 mg/mL and 2.7 mg/mL and 4.2 mg/mL
  Nicotine Concentration Of Original Test Aliquots: 48.0 mg/mL and 27.0 mg/mL and 42.0 mg/mL
[3]; empty control location (B3, C1, D3), no sample: lateral diffusion, 4 hr
  Nicotine Accumulation in donor reservoir: 7.075 mg and 4.375 mg and 6.450 mg
[3]; empty control location (B3, C1, D3), no sample: lateral diffusion, 5 hr
  Nicotine Accumulation in donor reservoir: 10.975 mg and 5.650 mg and 8.925 mg
[3]; [7]
  Nicotine Concentration Of Diluted Test Aliquots: 1.0 mg/mL and 1.1 mg/mL
  Nicotine Concentration Of Original Test Aliquots: 10.0 mg/mL and 11.0 mg/mL
[3]; sample* (A4, D1): drug reservoir came off the backing with the release liner, 2 hr
  Nicotine Accumulation in donor reservoir: 0.825 mg and 0.750 mg
[3]; [8]
  Nicotine Concentration Of Diluted Test Aliquots: 1.2 mg/mL and 1.4 mg/mL
  Nicotine Concentration Of Original Test Aliquots: 12.0 mg/mL and 14.0 mg/mL
[3]; sample* (A4, D1): drug reservoir came off the backing with the release liner, 3 hr
  Nicotine Accumulation in donor reservoir: 1.600 mg and 1.400 mg
[3]; [9]
  Nicotine Concentration Of Diluted Test Aliquots: 1.4 mg/mL and 1.6 mg/mL
  Nicotine Concentration Of Original Test Aliquots: 14.0 mg/mL and 16.0 mg/mL
[3]; sample* (A4, D1): drug reservoir came off the backing with the release liner, 4 hr
  Nicotine Accumulation in donor reservoir: 2.450 mg and 2.150 mg
[3]; [10]
  Nicotine Concentration Of Diluted Test Aliquots: 1.6 mg/mL and 1.8 mg/mL
  Nicotine Concentration Of Original Test Aliquots: 16.0 mg/mL and 18.0 mg/mL
[3]; sample* (A4, D1): drug reservoir came off the backing with the release liner, 5 hr
  Nicotine Accumulation in donor reservoir: 3.400 mg and 3.000 mg

## CC(=O)O[C@H]1C(=O)[C@@]2(C)[C@H]([C@H](OC(=O)c3ccccc3)[C@]3(O)C[C@H](OC(=O)[C@H](O)[C@@H](NC(=O)c4ccccc4)c4ccccc4)C(C)=C1C3(C)C)[C@]1(OC(C)=O)CO[C@@H]1C[C@@H]2O [paclitaxel]
[1]
  Properties: absorption / water solubility: Poor absorption due to its low water
